# In patent publication US11865176B2, “Compositions and methods of modulating anti-tumor immunity” (Dana-Farber Cancer Institute, Inc., priority 2016, dated 2024):
# Columns and labels:
# [1] = test system: primary human CD4+ T cells; experiment: IL2 ELISA, primary human CD4+ T cells; format: cell-based; settings: α-CD3/CD28 and recombinant PD-L1 or control IgG; 100 nM (FIG. 1C)
# Description: PD-1-overexpressing Jurkat cells as previously published (23) were stimulated with Dynabeads conjugated to α-CD3 (UCHT1), α-CD28 (28.2), and α-PD-1 (clone EH12 from Gordon Freeman) or control IgG at a 4:1 bead:cell ratio in the presence of 1 μM CDK4/6 inhibitor for 18 h. For primary human T cells, normal donor human blood was obtained through DFCI IRB Protocol 04-430. PBMC were isolated using a Ficoll-Paque density gradient, and purified populations of CD4+ T lymphocytes were obtained through a negative magnetic selection kit according to manufacturer's instructions (Miltenyi). […] IL-2 levels in the supernatant were analyzed by AlphaLISA (Perkin Elmers) according to the manufacturer's protocol.
# CDK4/6 = experiment: Kinome profiling (KINOMEscan), selectivity; format: binding; settings: compared with abemaciclib
# Description: Palbociclib and abemaciclib were profiled by DiscoveRx using KINOMEscan (55). Briefly, the two compounds were tested at 100 nM and 1000 nM. Targeted kinases were visualized using the TREEspot™ compound profile visualization tool. Z'LYTE™ kinase assays were conducted for GSK3α and GSK3β at Life Technologies using Km ATP concentrations.
# [2] = test system: tumor infiltrating immune cells; experiment: FACS analysis of lung tumor immune infiltrates, KP GEMM; format: in vivo, mouse
# Text: All animal studies were reviewed and approved by the Institutional Animal Care and Use Committee (IACUC) at the Dana-Farber Cancer Institute. The genetically engineered mouse model (GEMM) harboring a conditional activating mutation of endogenous Kras (Kras^LSL-G12D/+) crossed with p53 conditional knockout Trp53^fl/fl has been previously described (36). CRE recombinase was induced through intranasal inhalation of […] adeno-Cre (University of Iowa adenoviral core).
# For drug treatment studies in GEMM models, mice were evaluated by MRI imaging to quantify lung tumor burden before and after drug treatment. Mice were treated with either vehicle, or 100 mg/kg trilaciclib or 100 mg/kg palbociclib daily by oral gavage.
# Mice were sacrificed, and lungs were perfused using sterile PBS through heart perfusion from the left ventricle after BAL fluid collection. The whole lung was minced into small pieces and digested in collagenase D (Sigma) and Dnase I (Sigma) in Hank's Balanced Salt Solution (HBSS) at 37° C. for 30 min. […] Live cells were determined by LIVE/DEAD® fixable aqua dead cell stain kit (Molecular Probes). The cell pellets were re-suspended in PBS with 2% FBS for Fluorescence-activated cell sorting (FACS) analysis. […] Cells were imaged on BD LSRFortessa (BD Biosciences) and analyzed using FlowJo software (Tree Star).
# total splenocytes = experiment: IFNγ production (ELISA) by splenocytes of mice treated in vivo; design: species or system mouse; settings: tumor-bearing mice, 100 mg/kg IP
# Description: FIG. 11. Tumor antigen experienced T cells are more sensitive to CDK4/6 inhibition. A. Naive C57BL/6 mice were treated with trilaciclib (100 mg/kg, IP) or vehicle for three days. Two and seven days after the final treatment, splenocytes were isolated and stimulated with α-CD3/CD28 antibodies for 72 hours to measure IFNγ production by ELISA. B. C57BL/6 mice were implanted with B16F10 tumor cells. Seven days post implantation mice were treated with trilaciclib (100 mg/kg, IP) or vehicle for 5 days. Five days post final treatment splenocytes were isolated and stimulated with α-CD3/CD28 antibodies for IFNγ production by ELISA. C. IL-2 production from Tconv (CD4^+CD25^−) cells after trilaciclib treatment. Tconv cells were isolated from either naive or tumor bearing (TMB) mice and treated with trilaciclib at indicated concentrations, in the presence of CD3 and CD28 antibodies. IL-2 production was determined 3 days after the treatment as percentage. (n=3) IFNγ production in CD8^+ T cells alone from naive or TMB mice after treatment with trilaciclib, as shown by percentage (D) or fold change (E). (n=3) F. Increased IFNγ production in CD8+ T cells by trilaciclib in the presence of Tregs. […] IFNγ production was determined 3 days after the treatment as shown as percentage. […]
# [3] = test system: splenic T cells (Tconv, CD8+, Treg); experiment: Cell co-culture and cytokine production ex vivo; format: cell-based, mouse
# Description: Naïve or KP tumor bearing C57BL/6 mice were sacrificed and total splenocytes were harvested. Spleens were digested with collagenase D (Roche) and Dnase I (Roche) at 37° C. for 30 min, followed by 1×ACS lysis buffer (Biolegend) incubation to lyse red blood cells. The collected total splenocytes were stained with the fluorochome-conjugated cell surface markers CD3, CD4, CD8 and CD25 to isolate different T cell subpopulations, including conventional T cell Tconv (CD3+CD4+[…]), Treg (CD3+CD4+CD25+), and CD8+(CD3+CD8+) using BD FACSAria II SORP cell sorter (BD Bioscience). DAPI (4′,6-diamidino-2-phenylindole) staining was used to exclude dead cells. Sorted cells were cultured in 96-well plates pre-coated with CD3 antibody (eBioscience) and treated with trilaciclib in the presence of CD28 (eBioscience). Cells were collected 3 days after culturing and cytokine production of IFNγ and IL-2 was determined by intracellular staining and analyzed on BD LSRFortessa (BD Bioscience).
compound,measurement,setting,value
CN1CCN(c2ccc(Nc3ncc4cc5n(c4n3)C3(CCCCC3)CNC5=O)nc2)CC1 [trilaciclib],IL-2 secretion,[1],enhanced IL-2 secretion
same,selectivity for CDK4/6,CDK4/6,significantly more selective for CDK4/6
same,"infiltration of CD4+ T cells and, to a lesser degree, CD8+ cells into lung tumors","[2]; KP mice, 100 mg/kg daily for 7 days",increased infiltration
same,levels of PD-1 and CTLA-4 in CD4+ and CD8+ T cells,"[2]; after treatment, to different extents",reduced
same,IFNγ secretion of total splenocytes,total splenocytes,increased IFNγ secretion
same,IL-2 production,"[3]; Tconv cells treated ex vivo, 3 days, naïve vs tumor-bearing mice",increased IL-2 production only in cells from tumor-bearing mice
same,increase of IFNγ production,[3]; splenic CD8+ T cells from tumor-bearing mice co-cultured with Tregs,~10 fold
